Measured values: patent publication US5846525A, “Protected biopolymers for oral administration and methods of using same” (Trega Biosciences, Inc., priority 1995, dated 1998)
“And” between values parts separate entries of the source, which are not always exact repeats. Equal values may be shown once.

Key:
[1] = Binding of CRA-1 to Amberlite IRP-69 cation exchange resin (HPLC of filtrate); format: physicochemical
Description: CRA-1, which has the amino acid sequence Ac-Nle-Gln-His-(D)Phe-Arg-(D)Trp-Gly-NH2, was prepared as described in U.S. Pat. No. 5,420,109, where it is referred to as "EX-2." A 1 mg/ml solution of peptide CRA-1 was prepared by dissolving 19.7 mg CRA-1 in 19.7 ml PBS. Ten mg Amberlite® IRP-69 ("IRP-69") (Rohm and Haas) was added to 5 ml CRA-1 solution (5 mg CRA-1) to achieve a CRA-1:IRP-69 ratio of 1:2. The mixture was adjusted to pH 6.0 and stirred for 2 hr. The suspension then was filtered and the filtrate was analyzed by HPLC (see Example II.A) to determine the total amount of CRA-1 bound to IRP-69. Binding also was performed using CRA-1:IRP-69 ratios of 1:20 and 1:200.

[2] = Binding of CRA-1 to Amberlite IRP-64 cation exchange resin (HPLC of filtrate); format: physicochemical
Description: A 1 mg/ml CRA-1 solution was prepared by dissolving 42.5 mg CRA-1 in 42.5 ml PBS. Fifty mg Amberlite® IRP-64 ("IRP-64") (Rohm and Haas) was added to 5 ml CRA-1 solution (5 mg CRA-1) to achieve a peptide:resin ratio of 1:10. The mixture was adjusted to pH 6.0 and stirred for 1 hr. The suspension was filtered and the filtrate was analyzed by HPLC (see Example II.A) to determine the total amount of CRA-1 bound to IRP-64. Binding also was performed using CRA-1: IRP-64 ratios of 1:1, 1:2 and 1:20.

trypsin [3] = target: T1, trypsin (Bos taurus, UniProt P00760); test: Susceptibility of free peptide to enzymatic degradation by trypsin; format: in vitro ADME; details: 37° C.
T1 construct: gene PRSS1
T1 sequence (P00760 24-246): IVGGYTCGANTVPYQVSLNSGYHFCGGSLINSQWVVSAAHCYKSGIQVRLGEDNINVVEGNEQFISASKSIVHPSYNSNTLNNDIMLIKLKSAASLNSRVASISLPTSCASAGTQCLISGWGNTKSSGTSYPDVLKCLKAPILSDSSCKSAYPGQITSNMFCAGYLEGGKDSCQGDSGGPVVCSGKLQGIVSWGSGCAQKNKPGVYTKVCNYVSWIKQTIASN
Description: (§1) Phosphate buffered saline (PBS) solutions were prepared and adjusted to pH 5.0, 7.0 or 8.0. CRA-1 was dissolved into each of the PBS solutions to a final concentration of 3 mg/ml. Samples of 3 mg/ml trypsin and 3 mg/ml chymotrypsin also were prepared in PBS at pH 5.0, 7.0 or 8.0.
(§2) To examine the susceptibility of CRA-1 to trypsin and chymotrypsin, 1 ml CRA-1 solution at pH 5.0 was mixed with 1 ml trypsin solution at pH 5.0 and 1 ml PBS (pH 5.0) to obtain a final concentration of 1 mg/ml CRA-1 and 1 mg/ml trypsin. Similar assay samples were prepared to examine the stability of CPA-1 in trypsin at pH 7.0 or pH 8.0 and in chymotrypsin at pH 5.0, 7.0 or 8.0. As a control, an assay sample was prepared without trypsin or chymotrypsin.
(§3) Immediately upon preparing an assay sample, 100 μl of the incubation mixture was removed and the reaction was terminated by adding 100 μl of a Stop solution (90% acetonitrile containing 0.1% trifluoroacetic acid). These samples were analyzed by HPLC to determine the amount of CRA-1 present in each sample at the initiation of the reaction.
(§4) The remainder of each assay sample was incubated in an oven at 37° C. At selected times after beginning the incubation, a 100 μl aliquot was withdrawn, the reaction was terminated as described above. The samples were analyzed by HPLC to determine the amount of intact CRA-1.

chymotrypsin [4] = target: T2, chymotrypsin (Bos taurus, UniProt P00766); test: Susceptibility of free peptide to enzymatic degradation by chymotrypsin; format: in vitro ADME; details: 37° C.
Description: as §1, §2, §3, §4

trypsin [5] = target: T1, trypsin; test: Stability of peptide-ion exchange resin complex to enzymatic degradation by trypsin; format: in vitro ADME; details: unbound control
Description: (§5) Fifty mg or 100 mg of the complex was suspended in 5 ml of PBS (pH 7.0) containing either 1 mg/ml trypsin or 1 mg/ml chymotrypsin. The suspensions were rotated at 200 rpm in an incubator at 37° C. for 2 hr. Following incubation, the suspension was vacuum-filtered and the filtrate was analyzed by HPLC to determine the amount of CRA-1 bound to the IRP-64. […] After 1 hr, the suspension was vacuum-[…] ion exchange resin was washed and filtered a second time with 50 ml 2M KCl. The filtrate and wash were analyzed by HPLC to determine the amount of drug recovered from the ion exchange resin.

trypsin [6] = tested on: T3, trypsin; test: as above; format: in vitro ADME; details: isolated enzyme trypsin, pH 7, unbound control, read-out: CRA-1 remaining
T3 construct: gene PRSS1
Description: as §5

chymotrypsin [7] = target: T2, chymotrypsin; test: Stability of peptide-ion exchange resin complex to enzymatic degradation by chymotrypsin; format: in vitro ADME; details: unbound control
Description: as §5

chymotrypsin [8] = test: as above; format: in vitro ADME; details: isolated enzyme chymotrypsin, pH 7, unbound control, read-out: CRA-1 remaining
Description: as §5

## CCCC[C@H](NC(C)=O)C(=O)N[C@@H](CCC(N)=O)C(=O)N[C@@H](Cc1c[nH]cn1)C(=O)N[C@H](Cc1ccccc1)C(=O)N[C@@H](CCCNC(=N)N)C(=O)N[C@H](Cc1c[nH]c2ccccc12)C(=O)NCC(N)=O [CRA-1, Ac-Nle-Gln-His-(D)Phe-Arg-(D)Trp-Gly-NH2]
[1]; IRP-69, peptide:resin ratio 1:2, PBS pH 6.0, stirred 2 hr
  CRA-1 bound to ion exchange resin: 66.91%
[1]; IRP-69, peptide:resin ratio 1:20, PBS pH 6.0, stirred 2 hr
  CRA-1 bound to ion exchange resin: 99.63%
[1]; IRP-69, peptide:resin ratio 1:200, PBS pH 6.0, stirred 2 hr
  CRA-1 bound to ion exchange resin: 99.5% and 99.52%
[2]; IRP-64, peptide:resin ratio 1:1, PBS pH 6.0, stirred 1 hr
  CRA-1 bound to ion exchange resin: 10.48%
[2]; IRP-64, peptide:resin ratio 1:2, PBS pH 6.0, stirred 1 hr
  CRA-1 bound to ion exchange resin: 20.08%
[2]; IRP-64, peptide:resin ratio 1:10, PBS pH 6.0, stirred 1 hr
  CRA-1 bound to ion exchange resin: 97.55%
[2]; IRP-64, peptide:resin ratio 1:20, PBS pH 6.0, stirred 1 hr
  CRA-1 bound to ion exchange resin: 98.97%
Trypsin [3]; pH 5.0, 1 mg/ml CRA-1, 1 mg/ml trypsin
  stability in the presence of trypsin: stable
Trypsin [3]; pH 7.0 or 8.0, 1 mg/ml CRA-1, 1 mg/ml trypsin
  half-life of degradation by trypsin: 20 to 30 min
Chymotrypsin [4]; pH 5.0, 1 mg/ml CRA-1, 1 mg/ml chymotrypsin
  stability in the presence of chymotrypsin: stable
Chymotrypsin [4]; pH 7.0 or 8.0, 1 mg/ml CRA-1, 1 mg/ml chymotrypsin
  half-life of degradation by chymotrypsin: 20 to 30 min
Trypsin [5]
  CRA-1 remaining: almost completely degraded
Trypsin [6]
  remaining at 2 h: 2.96%
Chymotrypsin [7]
  CRA-1 remaining: almost completely degraded
Chymotrypsin [8]
  remaining at 2 h: 5.47%
